The target in this assay is Voltage-dependent calcium channel subunit alpha-2/delta-1 (Homo sapiens, UniProt P54289). The experiment in a line: [3H]Gabapentin binding in human A710 membrane expressing alpha-2delta subunit of calcium channel. Type of assay: cell membranes.

The results in this text go back to ChEMBL document CHEMBL1149422, “Expedited SAR study of high-affinity ligands to the alpha(2)delta subunit of voltage-gated calcium channels: Generation of a focused library using a solution-phase Sn2Ar coupling methodology” (Bioorg Med Chem Lett, 2006).

Where only a bound is given, the exact number is not on record here.

As usually defined, the IC50 is the point on the concentration scale where inhibition reaches its midpoint.

Sequence of Voltage-dependent calcium channel subunit alpha-2/delta-1 (P54289 25-956 limits assumed): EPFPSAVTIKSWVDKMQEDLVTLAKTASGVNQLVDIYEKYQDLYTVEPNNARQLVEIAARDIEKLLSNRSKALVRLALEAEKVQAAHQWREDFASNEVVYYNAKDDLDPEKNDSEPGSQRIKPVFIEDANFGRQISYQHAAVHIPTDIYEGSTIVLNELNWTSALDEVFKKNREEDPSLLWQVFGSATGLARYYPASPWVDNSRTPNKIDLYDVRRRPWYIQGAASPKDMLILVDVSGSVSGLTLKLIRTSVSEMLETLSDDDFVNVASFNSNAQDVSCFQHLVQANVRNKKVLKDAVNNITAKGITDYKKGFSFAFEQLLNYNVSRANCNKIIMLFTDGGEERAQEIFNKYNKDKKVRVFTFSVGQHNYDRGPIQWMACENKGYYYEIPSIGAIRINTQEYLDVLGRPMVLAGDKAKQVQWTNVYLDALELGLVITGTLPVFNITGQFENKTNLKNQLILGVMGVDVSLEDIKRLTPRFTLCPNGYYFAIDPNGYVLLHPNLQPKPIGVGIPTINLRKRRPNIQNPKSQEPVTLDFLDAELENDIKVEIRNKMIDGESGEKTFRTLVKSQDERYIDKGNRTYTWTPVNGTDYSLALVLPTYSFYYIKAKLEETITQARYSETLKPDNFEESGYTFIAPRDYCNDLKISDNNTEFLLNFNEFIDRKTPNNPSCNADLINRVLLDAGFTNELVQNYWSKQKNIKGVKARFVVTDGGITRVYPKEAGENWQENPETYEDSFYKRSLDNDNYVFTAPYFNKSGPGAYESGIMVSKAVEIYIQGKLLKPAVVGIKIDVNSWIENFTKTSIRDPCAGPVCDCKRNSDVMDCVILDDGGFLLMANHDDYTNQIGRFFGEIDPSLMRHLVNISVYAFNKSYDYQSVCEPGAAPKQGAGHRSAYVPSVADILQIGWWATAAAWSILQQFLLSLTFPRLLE
Sequence of Voltage-dependent calcium channel subunit alpha-2/delta-1 (P54289 957-1103 limits assumed): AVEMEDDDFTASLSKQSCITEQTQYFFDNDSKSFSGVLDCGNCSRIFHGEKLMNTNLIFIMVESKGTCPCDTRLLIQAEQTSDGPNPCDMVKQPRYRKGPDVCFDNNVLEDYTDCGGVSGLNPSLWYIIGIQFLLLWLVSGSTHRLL

In the case of `CCOc1ccc(-n2c(C)c3c(C)nnc(N4CCC5=C(C4)NC4C=CC=CC54)c3c2C)cc1` (stereo not drawn), the IC50 turned out to be 135 nM.
For `CCCCNc1nnc(C)c2c(C)n(-c3ccc(OCC)cc3)c(C)c12`, the IC50 stood at 61 nM.
Take `CCOc1ccc(-n2c(C)c3c(C)nnc(NCc4cccc(Cl)c4)c3c2C)cc1`: the IC50 is 37 nM.
`CCOc1ccc(-n2c(C)c3c(C)nnc(NCc4cnn(C)c4)c3c2C)cc1`: the IC50 came out at 69 nM.
In the case of `CCOc1ccc(-n2c(C)c3c(C)nnc(NCc4cccc(OC)c4)c3c2C)cc1` it was 239 nM; in that of `CCOc1ccc(-n2c(C)c3c(C)nnc(NCc4cccc5[nH]ccc45)c3c2C)cc1`, 70 nM.
For `CCOc1ccc(-n2c(C)c3c(C)nnc(N4CCOCC4)c3c2C)cc1`, the IC50 stood at 1690 nM.
As to `CCOc1ccc(-n2c(C)c3c(C)nnc(NC(C)C)c3c2C)cc1`, the IC50 is 67 nM.
In the case of `CCOc1ccc(-n2c(C)c3c(C)nnc(NCc4cccc(F)c4)c3c2C)cc1`, the IC50 came out at 18 nM.
Consider `CCOc1ccc(-n2c(C)c3c(C)nnc(NCc4ccc(F)cc4)c3c2C)cc1`, for which the IC50 stood at 94 nM.
For the compound `CCOc1ccc(-n2c(C)c3c(C)nnc(NC4CCCc5ccccc54)c3c2C)cc1` (stereo not drawn), the IC50 turned out to be 161 nM.
In the case of `CCOc1ccc(-n2c(C)c3c(C)nnc(N4CCC(C)CC4)c3c2C)cc1`, the IC50 came out at 370 nM.
Turning to `CCOc1ccc(-n2c(C)c3c(C)nnc(NCc4ccccc4OC)c3c2C)cc1`, the IC50 turned out to be 76 nM.
For `CCOc1ccc(-n2c(C)c3c(C)nnc(NCc4ccc(OC)cc4)c3c2C)cc1`, the IC50 is 702 nM.
Then `CCOc1ccc(-n2c(C)c3c(C)nnc(NCc4cccnc4)c3c2C)cc1`, with 119 nM; and `CCOc1ccc(-n2c(C)c3c(C)nnc(Nc4ccc5[nH]ccc5c4)c3c2C)cc1`, with 30 nM; and `CCOc1ccc(-n2c(C)c3c(C)nnc(Nc4ccc5[nH]ncc5c4)c3c2C)cc1`, with 36 nM.
For `CCOc1ccc(-n2c(C)c3c(C)nnc(Nc4ccc5[nH]nnc5c4)c3c2C)cc1`, the half-inhibitory concentration (IC50) came out at 346 nM.
As to `CCOc1ccc(-n2c(C)c3c(C)nnc(NCC(C)CC)c3c2C)cc1` (stereo not drawn), the IC50 was determined as 84 nM.
For the compound `CCOc1ccc(-n2c(C)c3c(C)nnc(N4CC(C)CC(C)C4)c3c2C)cc1` (stereo not drawn), the IC50 worked out at 702 nM.
With `CCOc1ccc(-n2c(C)c3c(C)nnc(NCc4ccc5c(n4)NCCC5)c3c2C)cc1`, the IC50 was determined as 32 nM.
Turning to `CCOc1ccc(-n2c(C)c3c(C)nnc(NCc4ccc(Cl)cc4)c3c2C)cc1`, the IC50 is 65 nM.
Regarding `CCOc1ccc(-n2c(C)c3c(C)nnc(N4CCC(NC(C)=O)C4)c3c2C)cc1` (stereo not drawn), the IC50 came out at 144 nM.
Turning to `CCOc1ccc(-n2c(C)c3c(C)nnc(N4CCCC4)c3c2C)cc1`, the IC50 stood at 180 nM.
As for `CCOc1ccc(-n2c(C)c3c(C)nnc(NC(C)CC(C)C)c3c2C)cc1` (stereo not drawn), the IC50 amounted to 296 nM.
As to `CCOc1ccc(-n2c(C)c3c(C)nnc(Nc4ccc5c(c4)OCO5)c3c2C)cc1`, the IC50 was found to be 207 nM.
For the compound `CCOc1ccc(-n2c(C)c3c(C)nnc(NCc4ccccn4)c3c2C)cc1`, the IC50 was more than 3000 nM.
In the case of `CCOc1ccc(-n2c(C)c3c(C)nnc(NCc4n[nH]cc4C4CC4)c3c2C)cc1`, the IC50 was determined as 68 nM.
In the case of `CCOc1ccc(-n2c(C)c3c(C)nnc(NCc4cnn(CC)c4)c3c2C)cc1`, the IC50 was determined as 64 nM.
`CCOc1ccc(-n2c(C)c3c(C)nnc(Nc4ccc5c(c4)CCC5)c3c2C)cc1`: the IC50 came to 199 nM.
For `CCOc1ccc(-n2c(C)c3c(C)nnc(N4CC(C)OC(C)C4)c3c2C)cc1` (stereo not drawn), the IC50 is more than 3000 nM.
With `CCOc1ccc(-n2c(C)c3c(C)nnc(NC4CCc5ccccc54)c3c2C)cc1` (stereo not drawn), the IC50 was 54 nM.
Consider `CCOc1ccc(-n2c(C)c3c(C)nnc(N4C[C@@H]5CCc6ccccc6[C@@H]5C4)c3c2C)cc1`, for which the IC50 was 84 nM.
As to `CCOc1ccc(-n2c(C)c3c(C)nnc(N4CCN(C)CC4)c3c2C)cc1`, the IC50 stood at 2930 nM.
Take `CCOc1ccc(-n2c(C)c3c(C)nnc(NCc4cccc5cccnc45)c3c2C)cc1`: the half-maximal inhibitory concentration (IC50) came to 63 nM.
Turning to `CCOc1ccc(-n2c(C)c3c(C)nnc(NCc4ccncc4)c3c2C)cc1`, the concentration for half-maximal inhibition (IC50) stood at 84 nM.
In the case of `CCOc1ccc(-n2c(C)c3c(C)nnc(N4CCC(c5ccccc5)(c5ccccc5)C4)c3c2C)cc1`, the IC50 is 153 nM.
As for `CCOc1ccc(-n2c(C)c3c(C)nnc(NCC4CCCO4)c3c2C)cc1` (stereo not drawn), the half-inhibitory concentration (IC50) turned out to be 50 nM.
